Data from PMC10778824, “New Chalcone Derivatives Containing 2,4-Dichlorobenzenesulfonamide Moiety with Anticancer and Antioxidant Properties” (International Journal of Molecular Sciences, 2023).
≈ marks a conversion by molar mass, not a printed value.

How the values were obtained:
MCF-7 breast = test system: MCF-7 breast; set-up: method as in PMID 29223717; settings: cited from earlier work
143B osteosarcoma = test system: 143B osteosarcoma; set-up: method as in PMID 29223717; settings: cited from earlier work
HCT-116 colon = test system: HCT-116 colon; set-up: method as in PMID 29223717; settings: cited from earlier work
K-562 cells = settings: 10 µM; cited from earlier work
[1] = DPPH radical scavenging assay; settings: for % of DPPH radical inhibition: concentration of 800 µg/mL
Description: The DPPH radical scavenging assay of samples (ligands or complexes) was performed with ascorbic acid as a standard. Different concentrations of chalcone derivatives, dissolved in DMSO, were mixed with the same amount of 0.06 mM DPPH methanolic solution and incubated at room temperature in the dark for 30 min. The absorbance was analyzed at λ = 517 nm using a 96-well microplate reader (Epoch, BioTek System, Winooski, VT, USA). The control was composed of DPPH and DMSO. DPPH inhibition was calculated according to the following Formula (2):DPPH Inhibition (%) = [(Acontrol − Asample)/Acontrol] × 100%(2)

[2] = ABTS radical scavenging assay
Description: The ABTS radical scavenging assay of chalcone derivatives was performed with ascorbic acid as a standard. Different concentrations of samples, dissolved in DMSO, were mixed with 170 μL of ABTS solution (2 mM ABTS diammonium salt and 3.5 mM potassium persulfate), and water was added to a final volume of 300 μL. ABTS solution with DMSO was used as a control. […] ABTS inhibition was calculated according to the following Formula (3):ABTS Inhibition (%) = [(Acontrol − Asample)/Acontrol] × 100%(3)

[3] = β-Carotene bleaching test
Description: β-Carotene bleaching test was based on the method described by Olszowy et al. with some modifications. First, 1 mg of β-carotene was dissolved in 5 mL of chloroform. Afterwards, […] of linoleic acid and 200 mg of Tween 40 were added. The chloroform was evaporated, and 50 mL of oxygenized water was added. The created emulsion was mixed with different concentrations of chalcone derivatives. β-carotene bleaching was analyzed at λ = 492 nm before (t = 0 min) and after 90 min (t = 90 min) of incubation at 50 °C (Epoch, BioTek Instruments, Santa Clara, CA, USA). Ascorbic acid was used as a standard. The control was composed of emulsion and DMSO.
The results were calculated according to the following Formula (4):[(AsampleT0 − AsampleT90)/(AcontrolT0 − AcontrolT90) × 100%(4)

[4] = test system: acute promyelocytic leukemia HL-60; test: MTT assay, HL-60 cells; assay type: cell-based, human
Description: (§1) The human gastric adenocarcinoma AGS, cervical cancer HeLa, and acute promyelocytic leukemia HL-60 cells were obtained from the American Type Culture Collection (ATCC, Manassas, VA, USA). Human neonatal fibroblasts were obtained from LGC Standards (Luckenwalde, Germany). The HeLa and AGS lines were cultured in Dulbecco’s modified Eagle’s medium (DMEM) and DMEM/F12 medium, respectively. The HL-60 line was maintained in RPMI-1640 medium. Fibroblasts were cultured in Fibroblast Growth Medium with Supplement Mix. All the media were supplemented with 100 units/mL of penicillin, 100 µg/mL of streptomycin, and 10% (v/v) fetal bovine serum (FBS) (Merck Millipore, Burlington, MA, USA). The cells were incubated at 37 °C and 5% CO2.
(§2) To estimate the cytotoxic effect of the five compounds (4–8), MTT (3-(4,5-dimethylthiazol-2-yl)-2,5-diphenyltetrazolium bromide) assay was used. Oxaliplatin was used as a positive control in this test. All the cell lines were seeded in 96-well plates at a density of 5 × 10^3 cells/well and treated for 24 h with the compounds at concentrations of 0.5–40 µg/mL. Oxaliplatin was tested in the range of 20–400 µg/mL (50–1000 µM). After treatment, the cells were incubated with MTT (0.5 mg/mL; Merck Millipore, Burlington, MA, USA) for 3 h. Then, DMSO was used to dissolve formazan crystals, and the absorbance of the formazan solution was measured with a plate reader (Epoch, BioTek Instruments, Santa Clara, CA, USA). All the results (±standard deviation (SD)) were obtained from six repetitions in at least two independent experiments. The data are expressed as IC50 values (µg/mL).

[5] = test system: cancer cells (HeLa, HL-60, AGS); test: MTT assay, cancer cells taken together; assay type: cell-based, human; settings: HL-60 and AGS together
Description: as §1, §2

[6] = test system: gastric adenocarcinoma AGS; test: MTT assay, AGS cells; assay type: cell-based, human
Description: as §1, §2

neutrophil elastase = biological target: T1, neutrophil elastase (Sus scrofa, UniProt P00772); test: Elastase assay (SANA substrate); assay type: biochemical, porcine; settings: Tris-HCl pH 8.0, SANA substrate; read-out: neutrophil elastase inhibition IC50 (converted)
T1 construct: purchased Sigma Chemical Co. (St. Louis, MO, USA)
T1 sequence (P00772 27-266): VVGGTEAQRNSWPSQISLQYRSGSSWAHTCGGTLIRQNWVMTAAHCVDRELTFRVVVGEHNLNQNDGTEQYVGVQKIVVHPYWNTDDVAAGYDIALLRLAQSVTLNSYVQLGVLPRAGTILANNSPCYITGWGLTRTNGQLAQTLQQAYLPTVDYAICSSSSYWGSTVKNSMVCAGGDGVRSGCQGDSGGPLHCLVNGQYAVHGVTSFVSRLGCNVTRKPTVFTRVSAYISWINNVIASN
Description: The elastase analysis was performed according to the spectrophotometric method with oleanolic acid as a reference. The reaction mixture (Tris-HCl buffer (pH 8.0), 1.0 μg/mL porcine pancreatic elastase, and different concentrations of chalcone derivatives was preincubated at room temperature for 15 min. Afterwards, the addition of the substrate—SANA—started the reaction. Product formation changes were analyzed at λ = 410 nm for 20 min every 20 s (Epoch, BioTek Instruments, Santa Clara, CA, USA). The control was composed of Tris-HCl buffer (pH 8.0), an appropriate concentration of the chalcone derivative, and SANA.

cervical cancer HeLa = test: MTT assay, HeLa cells; assay type: cell-based, human
Description: as §1, §2

[7] = test system: human neonatal fibroblasts; test: MTT assay, noncancerous fibroblasts; assay type: cell-based; settings: Homo sapiens, Fibroblast, 24 h treatment
Description: as §1, §2

[8] = test system: Helicobacter pylori ATCC43504; test: MIC determination; assay type: cell-based; settings: 37 °C, 48 h
Description: (§3) The MIC determinations for Staphylococcus epidermidis ATCC14990, Staphylococcus aureus ATCC6538, Enterococcus faecalis ATCC51299, Klebsiella pneumoniae ATCC13883, Escherichia coli ATCC8739, Salmonella enterica ATCC13076, Helicobacter pylori ATCC43504, Campylobacter jejuni ZMF, Campylobacter coli ZMF, Bacillus cereus PCM 1948,2019 (ATCC11778), and Listeria monocytogenes PCM2191 were performed based on the methodology described by Krauze-Baranowska et al.. The procedure for H. pylori was used in the experiments with Campylobacter strains, and the procedure for B. subtilis was used in the experiments with L. monocytogenes and B. cereus. The tested samples were dissolved in DMSO and diluted with water (concentration of approximately 500 μg/mL). The solutions were diluted geometrically by transferring the mixture/dilution (100 μL) from the first to the twelfth well of the microtiter plate. The final concentrations of samples used for antimicrobial effects ranged from 500 to 0.006 µg/mL. Ampicillin was used as a reference compound in the concentration range of 128 to 0.0625 µg/mL. The tests were incubated at 37 °C for 48 h. The diluent concentration had no effect on the activity of the tested compounds. All experiments were performed in triplicate.

Campylobacter jejuni ZMF = test: MIC determination; assay type: cell-based; settings: 37 °C, 48 h
Description: as §3

Campylobacter coli ZMF = test: MIC determination; assay type: cell-based; settings: 37 °C, 48 h
Description: as §3

[9] = test system: Listeria monocytogenes PCM2191; test: MIC determination; assay type: cell-based; settings: 37 °C, 48 h
Description: as §3

[10] = test system: Escherichia coli ATCC8739; test: MIC determination; assay type: cell-based; settings: 37 °C, 48 h
Description: as §3

[11] = test system: Salmonella enterica ATCC13076; test: MIC determination; assay type: cell-based; settings: 37 °C, 48 h
Description: as §3

[12] = test system: Staphylococcus aureus ATCC6538; test: MIC determination; assay type: cell-based; settings: 37 °C, 48 h
Description: as §3

[13] = test system: Staphylococcus epidermidis ATCC14990; test: MIC determination; assay type: cell-based; settings: 37 °C, 48 h
Description: as §3

[14] = test system: Enterococcus faecalis ATCC51299; test: MIC determination; assay type: cell-based; settings: 37 °C, 48 h
Description: as §3

[15] = test system: Klebsiella pneumoniae ATCC13883; test: MIC determination; assay type: cell-based; settings: 37 °C, 48 h
Description: as §3

[16] = test system: Bacillus cereus PCM 1948,2019 (ATCC11778); test: MIC determination; assay type: cell-based; settings: 37 °C, 48 h
Description: as §3

[17] = biological target: BRAF serine–threonine kinase; set-up: method as in PMID 22646766; settings: cited from earlier work
[18] = test system: colon cancer cells (HTC-116); set-up: method as in PMID 12556221; settings: preclinical tests; cited from earlier work
[19] = test system: hepatocellular carcinoma HepG2 cells; set-up: method as in PMID 32545423; settings: cited from earlier work
[20] = SI = IC50 noncancer cells/IC50 cancer cells, in relation to human neonatal fibroblasts

For `Cc1cccc(S(=O)(=O)Nc2cccc(/C=C/C(=O)c3nc4ccccc4[nH]3)c2)c1` [(E)-N-{3-[3-(1H-benzo[d]imidazol-2-yl)-3-oxoprop-1-en-1-yl]phenyl}-3-methylbenzenesulfonamide], the IC50 (MCF-7 breast) is listed as 890 nM, the IC50 (143B osteosarcoma) is listed as 790 nM and the IC50 (HCT-116 colon) is listed as 600 nM.
For methoxytolylacryloylbenzenesulfonamide, the “viability of leukemia cells” value (K-562 cells) is given as “less than 10%”.
For `O=C1O[C@H]([C@@H](O)CO)C(O)=C1O` [ascorbic acid, reference compound], the “DPPH IC50” value [1] was 12.75 ± 0.25 µg/mL, the “% of DPPH radical inhibition” value [1] was 100% and the “ABTS IC50” value [2] was 20.43 ± 0.79 µg/mL. The “% of ABTS radical inhibition” value ([2]; concentration of 800 µg/mL) was 100% and the “β-carotene bleaching IC50” value ([3]; 90 min at 50 °C) was 15.6 ± 0.65 µg/mL.
In the case of `Cc1ccc(/C=C/C(=O)c2ccc(NS(=O)(=O)c3cc(C)c(Cl)cc3Cl)cc2)cc1` [Compound 8, (E)-2,4-Dichloro-5-Methyl-N-{4-[3-(p-Tolyl)acryloyl]phenyl}benzenesulfonamide], the IC50 ([4]; Homo sapiens, HL-60, 24 h, MTT, 24 h treatment) is reported as 2.9 ± 0.17 µg/mL (≈ 6.3 µM), the “selectivity index HL-60” value [4, 20] is reported as 9.58 and the “IC50 toward cancer cells” value [5] is reported as “weaker activity”. The “% of DPPH radical inhibition” value [1] was 0.32 ± 0.03%, the IC50 ([6]; Homo sapiens, AGS, 24 h, MTT, 24 h treatment) was 3.6 ± 0.33 µg/mL (≈ 7.82 µM) and the “selectivity index AGS” value [6, 20] was 7.72. The IC50 (neutrophil elastase) was 55900 nM, the IC50 (cervical cancer HeLa; Homo sapiens, HeLa, MTT, 24 h treatment) was 7.96 ± 0.37 µg/mL (≈ 17.3 µM) and the “selectivity index HeLa” value (cervical cancer HeLa; [20]) was 3.50. For the same compound, the IC50 [7] was 27.8 ± 2.82 µg/mL (≈ 60.4 µM), the MIC [8] was > 500 µg/mL and the MIC (Campylobacter jejuni ZMF) was > 500 µg/mL. For the same compound, the MIC (Campylobacter coli ZMF) was > 500 µg/mL, the MIC [9] was > 500 µg/mL and the MIC [10] was > 500 µg/mL. The MIC [11] was > 500 µg/mL, the MIC [12] was > 500 µg/mL and the MIC [13] was > 500 µg/mL. The MIC [14] was > 500 µg/mL, the MIC [15] was > 500 µg/mL and the MIC [16] was > 500 µg/mL. For the same compound, the “protection of lipids oxidation / reduction of lipid peroxidation (in words)” value ([3]; compared to ascorbic acid) was “weaker properties”.
For `CCCS(=O)(=O)Nc1ccc(F)c(C(=O)c2c[nH]c3ncc(-c4ccc(Cl)cc4)cc23)c1F` [vemurafenib], the IC50 [17] is given as 31 nM.
For `COc1ccc(C(=O)C=Cc2ccccc2)cc1S(N)(=O)=O` [5-cinnamoyl-2-methoxybenzenesulfonamide], the “viability of leukemia cells” value (K-562 cells) is given as “less than 10%”.
In the case of `NS(=O)(=O)c1ccc(S(=O)(=O)Nc2cccc3c(Cl)c[nH]c23)cc1` [Indisulam], the “IC50 colon cancer cells (HTC-116)” value [18] is listed as 0.11 µg/mL (≈ 0.285 µM).
For `COc1cc(O)cc(O)c1C(=O)/C=C/c1ccccc1` [cardamonin], the IC50 [19] is given as 17100 ± 592 nM.
